Measured values published in PubChem BioAssay (NCI).
Where “and” joins values, the source holds several entries; their conditions need not be identical. Equal values may be shown once.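 Exposure lasted 48 hours, with cells grown in 96-well plates and compounds tested at five concentrations. GI50: concentration for 50% inhibition of growth. TGI: total growth inhibition.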

Assays:
Experiment in all cases: growth of human tumour cells (NCI), 48 h
[1] = system: SK-MEL-2 melanoma
[2] = system: 786-0 renal
[3] = system: SR leukemia
[4] = system: HCC-2998 colon
[5] = system: MDA-MB-231 breast
[6] = system: NCI-H23 lung
[7] = system: BT-549 breast
[8] = system: NCI/ADR-RES ovarian
[9] = system: MALME-3M melanoma
[10] = system: UACC-257 melanoma

| Structure (SMILES) | GI50 [1] | TGI [1] [µM] | TGI [2] [µM] | TGI [3] [µM] | TGI [4] [µM] | TGI [5] [µM] | TGI [6] [µM] | TGI [7] [µM] | TGI [8] [µM] | TGI [9] [µM] | TGI [10] [µM] |
| --- | --- | --- | --- | --- | --- | --- | --- | --- | --- | --- | --- |
| CC(=O)OCC1OC(SC2=NC(=O)CS2)C(OC(C)=O)C(OC(C)=O)C1OC(C)=O (stereo unspecified) | > 100 µM and 27.1 µM | > 100 | > 100 | > 100 | > 100 | > 100 | > 100 | > 100 | > 100 | > 100 | > 100 |
| Clc1ccc(-c2nn3c(COc4cccc(OCc5nnc6sc(-c7ccc(Cl)cc7)nn56)c4)nnc3s2)cc1 |  | > 100 | 59.9 | 88.9 | 96.2 | > 100 | 71.3 | > 100 | > 100 | 50.4 | 62.1 |
| CCOC(=O)CCc1cn2cc(Br)nc(OC)c2n1 |  | > 100 | > 100 | > 100 | > 100 | > 100 | > 100 | > 100 | > 100 | > 100 | > 100 |
| O=C1Nc2cccc(Cl)c2/C1=C\c1c(-c2ccccc2)nc2n1CCS2 |  | 46.2 | 36.2 | 53.2 | 46.7 | 49 | 88.7 | 76.5 | > 100 | 46.3 | 51.4 |
